From patent publication US10030004B2, “Compounds and methods of use” (Medivation Technologies LLC, priority 2014, dated 2018) come the findings set out here.

One series concerns p-SMAD2. The series can be described thus: p-SMAD2 inhibition, Western Blot Analysis in TGFβ-stimulated MDA-MB-231 cells. It is filed as cell-based. The conditions noted are these: Homo sapiens, TGFβ 2 ng/mL, triplicate; for inhibition at 0.1 µM: 0.1 μM compound, read-out: Average p-SMAD2 inhibition @ 0.1 μM (% Inh). On the technique in general: In western blotting, separated proteins are transferred to a membrane and probed.

The next series concerns the target ALK1 (ACVRL1) (Homo sapiens (Human), UniProt P37023). As to the kind of experiment: In vitro kinase assay, ALK1. Type of series: biochemical. As to conditions: 10 μM ATP; read-out: Inhibition of ALK1 IC50.
The next series deals with ALK2 (ACVR1) (Homo sapiens (Human), UniProt Q04771). The series can be described thus: In vitro kinase assay, ALK2. Type of series: biochemical. As to conditions: read-out: Inhibition of ALK2 IC50.
Sequence of ALK2 (ACVR1) (Q04771 21-509): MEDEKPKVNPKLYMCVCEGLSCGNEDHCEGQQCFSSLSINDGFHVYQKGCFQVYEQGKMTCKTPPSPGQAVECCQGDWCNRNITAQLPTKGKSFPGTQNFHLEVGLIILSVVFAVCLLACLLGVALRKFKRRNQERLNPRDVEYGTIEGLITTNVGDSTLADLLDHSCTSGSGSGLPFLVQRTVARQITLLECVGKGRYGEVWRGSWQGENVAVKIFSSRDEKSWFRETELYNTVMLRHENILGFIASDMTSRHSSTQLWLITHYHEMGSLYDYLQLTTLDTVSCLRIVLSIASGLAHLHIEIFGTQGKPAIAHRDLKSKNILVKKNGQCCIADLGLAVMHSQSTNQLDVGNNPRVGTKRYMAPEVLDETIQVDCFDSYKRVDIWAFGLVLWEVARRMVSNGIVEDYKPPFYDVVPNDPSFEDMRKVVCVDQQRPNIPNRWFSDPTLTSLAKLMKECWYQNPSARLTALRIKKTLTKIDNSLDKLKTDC
A further series addresses ALK3 (BMPR1A) (Homo sapiens (Human), UniProt P36894). The series can be described thus: In vitro kinase assay, ALK3. Type of series: biochemical. As to conditions: 10 μM ATP; read-out: Inhibition of ALK3 IC50.
A further series concerns the target ALK6 (BMPR1B) (Homo sapiens (Human), UniProt O00238). The series can be described thus: In vitro kinase assay, ALK6. It is filed as biochemical.
Another series deals with ALK4 (ACVR1B) (Homo sapiens (Human), UniProt P36896). As to the kind of experiment: In vitro kinase assay, ALK4. Type of series: biochemical. The conditions noted are these: 10 μM ATP; read-out: Inhibition of ALK4 IC50.
Sequence of ALK4 (ACVR1B) (P36896 24-505): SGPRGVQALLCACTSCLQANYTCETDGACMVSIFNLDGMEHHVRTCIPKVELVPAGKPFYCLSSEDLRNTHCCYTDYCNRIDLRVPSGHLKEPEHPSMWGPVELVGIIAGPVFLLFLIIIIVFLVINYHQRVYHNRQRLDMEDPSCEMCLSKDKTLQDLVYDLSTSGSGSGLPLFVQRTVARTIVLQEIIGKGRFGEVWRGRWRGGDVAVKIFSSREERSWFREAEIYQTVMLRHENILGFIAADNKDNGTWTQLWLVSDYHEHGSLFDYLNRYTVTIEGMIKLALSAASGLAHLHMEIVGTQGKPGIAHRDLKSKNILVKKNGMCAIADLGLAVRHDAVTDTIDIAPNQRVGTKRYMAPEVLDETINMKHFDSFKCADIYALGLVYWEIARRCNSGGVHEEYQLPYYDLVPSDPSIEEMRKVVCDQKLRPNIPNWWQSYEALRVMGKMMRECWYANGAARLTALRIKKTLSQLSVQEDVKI
The target of the next series is ALK5 (TGFBR1) (Homo sapiens (Human), UniProt P36897). As to the kind of experiment: In vitro kinase assay, ALK5. Type of series: biochemical. The conditions noted are these: 10 μM ATP; read-out: Inhibition of ALK5 IC50.
Sequence of ALK5 (TGFBR1) (P36897 34-503): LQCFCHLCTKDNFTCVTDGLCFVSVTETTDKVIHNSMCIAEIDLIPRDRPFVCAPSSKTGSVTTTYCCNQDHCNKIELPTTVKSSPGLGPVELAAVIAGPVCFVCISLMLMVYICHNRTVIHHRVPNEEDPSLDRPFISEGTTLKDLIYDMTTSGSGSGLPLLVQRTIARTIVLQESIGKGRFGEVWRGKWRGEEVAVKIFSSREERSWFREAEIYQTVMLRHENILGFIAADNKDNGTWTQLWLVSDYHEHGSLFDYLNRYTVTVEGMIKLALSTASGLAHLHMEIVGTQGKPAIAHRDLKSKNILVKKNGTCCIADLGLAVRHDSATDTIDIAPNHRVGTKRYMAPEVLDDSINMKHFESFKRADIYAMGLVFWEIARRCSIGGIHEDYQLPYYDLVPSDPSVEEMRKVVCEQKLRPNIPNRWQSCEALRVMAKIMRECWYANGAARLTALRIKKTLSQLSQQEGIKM
Series [1] in a line: Pharmacokinetics and bioavailability in male mice after a single dose. Type of series: in vivo. As to conditions: for AUC(0-t) / Cmax / clearance / half-life / Tmax / bioavailability: mouse, plasma; for half-life: read-out: Terminal t1/2 (converted).
The nature of series [2]: Plasma and brain concentrations at 0.5 and 1 h in mice. It is filed as in vivo. The conditions noted are these: male, mouse.
[3] abbreviates: 10 μM ATP, read-out: Inhibition of ALK6 IC50.
Where [4] appears, read: brain, IV (2 mg/kg), read-out: Brain concentration.
The mark [5] stands for this setting: brain, PO (10 mg/kg), read-out: Brain concentration.
Setting [6] is: plasma, IV (2 mg/kg), read-out: Plasma concentration.
Setting [7] is: plasma, PO (10 mg/kg), read-out: Plasma concentration.

Where two headings read alike, the source gives them in different places. Some results are limits rather than exact numbers.

Sequence of ALK6 (BMPR1B) (O00238 14-502): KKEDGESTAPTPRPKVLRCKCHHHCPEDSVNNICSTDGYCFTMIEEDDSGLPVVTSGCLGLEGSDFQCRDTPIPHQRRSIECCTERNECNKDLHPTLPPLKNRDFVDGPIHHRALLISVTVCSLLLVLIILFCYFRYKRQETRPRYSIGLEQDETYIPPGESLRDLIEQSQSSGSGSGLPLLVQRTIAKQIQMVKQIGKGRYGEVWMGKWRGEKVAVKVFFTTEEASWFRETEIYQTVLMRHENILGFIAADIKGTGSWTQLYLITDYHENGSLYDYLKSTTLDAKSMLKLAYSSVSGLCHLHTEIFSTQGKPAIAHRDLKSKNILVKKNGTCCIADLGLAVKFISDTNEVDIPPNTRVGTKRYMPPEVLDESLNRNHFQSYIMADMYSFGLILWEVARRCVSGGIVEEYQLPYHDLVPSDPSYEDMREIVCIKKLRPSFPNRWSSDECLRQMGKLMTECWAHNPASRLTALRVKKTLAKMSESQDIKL
Sequence of ALK3 (BMPR1A) (P36894 24-532): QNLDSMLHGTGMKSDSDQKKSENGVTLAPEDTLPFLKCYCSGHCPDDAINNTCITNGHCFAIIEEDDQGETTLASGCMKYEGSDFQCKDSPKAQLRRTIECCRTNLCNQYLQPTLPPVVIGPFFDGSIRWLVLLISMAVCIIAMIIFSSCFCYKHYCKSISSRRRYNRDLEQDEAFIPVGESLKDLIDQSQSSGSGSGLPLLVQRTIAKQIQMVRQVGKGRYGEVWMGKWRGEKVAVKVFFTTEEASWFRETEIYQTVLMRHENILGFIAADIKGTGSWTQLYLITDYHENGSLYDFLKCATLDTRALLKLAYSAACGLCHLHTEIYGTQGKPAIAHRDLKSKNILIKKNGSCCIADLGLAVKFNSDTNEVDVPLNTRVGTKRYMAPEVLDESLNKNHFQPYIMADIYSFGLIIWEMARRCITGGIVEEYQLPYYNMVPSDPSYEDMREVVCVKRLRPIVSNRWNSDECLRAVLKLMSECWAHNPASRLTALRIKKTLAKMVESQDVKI
Sequence of ALK1 (ACVRL1) (P37023 22-503): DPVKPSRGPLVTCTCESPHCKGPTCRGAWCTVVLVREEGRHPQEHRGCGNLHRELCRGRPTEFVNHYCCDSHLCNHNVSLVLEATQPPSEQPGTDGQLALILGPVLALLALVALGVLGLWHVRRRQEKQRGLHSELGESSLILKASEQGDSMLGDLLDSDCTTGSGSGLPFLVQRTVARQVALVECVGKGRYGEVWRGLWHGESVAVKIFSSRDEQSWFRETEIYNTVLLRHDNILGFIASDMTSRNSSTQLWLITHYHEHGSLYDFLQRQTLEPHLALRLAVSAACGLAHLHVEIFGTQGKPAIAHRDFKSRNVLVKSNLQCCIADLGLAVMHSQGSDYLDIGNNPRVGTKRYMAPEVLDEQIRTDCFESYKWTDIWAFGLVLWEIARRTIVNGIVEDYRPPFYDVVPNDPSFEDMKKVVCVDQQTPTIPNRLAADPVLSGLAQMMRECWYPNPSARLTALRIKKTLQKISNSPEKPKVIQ

The inhibition is the change of the read-out against control, counted positive when it falls. `CC(C)c1cnc(-c2cc(Cl)ccc2F)cc1Nc1ccncc1C(=O)N1CCC(O)CC1` [compound 9, [4-[[2-(5-chloro-2-fluoro-phenyl)-5-isopropyl-4-pyridyl]amino]-3-pyridyl]-(4-hydroxy-1-piperidyl)methanone]: the inhibition at 0.1 µM in the series on p-SMAD2 was determined as 6%. Also, the inhibition at 0.5 µM with p-SMAD2 (0.5 μM compound, read-out: Average p-SMAD2 inhibition @ 0.5 μM (% Inh)) stood at 12.7%.

As usually defined, the IC50 is the point on the concentration scale where inhibition reaches its midpoint. Consider `C[C@H](O)CNC(=O)c1cnccc1Nc1cc(-c2cc(Cl)ccc2F)ncc1C1CC1` [compound 31, 4-{[2-(5-chloro-2-fluorophenyl)-5-cyclopropylpyridin-4-yl]amino}-N-[(2S)-2-hydroxypropyl]pyridine-3-carboxamide], for which the 50% inhibitory concentration (IC50) at ALK1 (ACVRL1), at ALK2 (ACVR1) (10 μM ATP), on ALK3 (BMPR1A) and at ALK6 (BMPR1B) (setting [3]) was above 10 µM in each case.

Turning to `C=Cc1cnc(-c2cc(Cl)ccc2F)cc1Nc1ccncc1C(=O)NC[C@H](C)O` [10a, (S)-4-(2-(5-chloro-2-fluorophenyl)-5-vinylpyridin-4-ylamino)-N-(2-hydroxypropyl)nicotinamide], the inhibition at 0.1 µM with p-SMAD2 was 0%.

As to `CC(O)CNC(=O)c1c[nH]nc1Nc1cc(-c2cc(Cl)ccc2F)ncc1C(C)C` (single isomer, unassigned) [21a, 3-[[2-(5-chloro-2-fluoro-phenyl)-5-isopropyl-4-pyridyl]amino]-N-(2-hydroxypropyl)-1H-pyrazole-4-carboxamide], the IC50 on ALK1 (ACVRL1) was above 100 µM; at ALK2 (ACVR1) (10 μM ATP), above 1000 µM; on ALK3 (BMPR1A), above 1000 µM; at ALK4 (ACVR1B), above 1000 µM; at ALK5 (TGFBR1) it was above 100 µM; on ALK6 (BMPR1B) it was above 1000 µM.

For the compound `CC(C)c1cnc(-c2ccccc2)cc1Nc1ccncc1C(=O)NC[C@H](C)O` [compound 28, N-(2-hydroxypropyl)-4-[(5-isopropyl-2-phenyl-4-pyridyl)amino]pyridine-3-carboxamide], the IC50 on ALK1 (ACVRL1) was above 100 µM; on ALK2 (ACVR1) (10 μM ATP), above 1000 µM; at ALK3 (BMPR1A) it was above 1000 µM; at ALK6 (BMPR1B) (setting [3]), above 1000 µM.

As for `C=C(C)c1cnc(-c2cc(Cl)ccc2F)cc1Nc1ccncc1C(=O)N[C@@H](CC)CO` (single isomer, unassigned) [24a], the IC50 at ALK1 (ACVRL1), on ALK2 (ACVR1) (10 μM ATP), on ALK3 (BMPR1A) and on ALK6 (BMPR1B) (setting [3]) was above 100 µM throughout.

As for `C=C(C)c1cnc(-c2cc(Cl)ccc2F)cc1Nc1ccncc1C(=O)N1CCCC1` [compound 34, 2-(5-chloro-2-fluorophenyl)-5-(prop-1-en-2-yl)-N-[3-(pyrrolidine-1-carbonyl)pyridin-4-yl]pyridin-4-amine], the concentration for half-maximal inhibition (IC50) at ALK1 (ACVRL1), on ALK2 (ACVR1) (10 μM ATP) and at ALK3 (BMPR1A) was above 10 µM each time.

Consider `CC(C)c1cnc(-c2ncccc2F)cc1Nc1ncnc2[nH]ccc12` [compound 30, 2-(3-fluoropyridin-2-yl)-5-(propan-2-yl)-N-{7H-pyrrolo[2,3-d]pyrimidin-4-yl}pyridin-4-amine], for which the IC50 on ALK2 (ACVR1) (10 μM ATP) was 73 µM; on ALK3 (BMPR1A), above 10 µM; on ALK6 (BMPR1B) (setting [3]), 13.5 µM.

By AUC(0-t) is commonly meant the area under the concentration-time curve up to a stated or last time point. Higher therefore signals high exposure. For orientation: Cmax means the peak of the concentration-time curve. By clearance is commonly meant a measure of how efficiently the substance is removed, as volume per time. Usually Tmax stands for the time at which the peak concentration occurs. As usually defined, the bioavailability is dose-corrected exposure relative to a reference, in per cent. Lower therefore signals poor availability. For `C=C(C)c1cnc(-c2cc(Cl)ccc2F)cc1Nc1ccncc1C(=O)NC[C@H](C)O` (single isomer, unassigned) [3a], at ALK6 (BMPR1B) (setting [3]), the IC50 was above 100 µM. Also, in [1] (intravenous, 2 mg/kg), the V is on record as 1.29 L/kg, the AUC(0-t) stood at 2.56 µM·h, the Cmax worked out at 602 nM and the clearance is 12.8 mL/min/kg. For the same compound, in [1] (intravenous, 2 mg/kg), the half-life was 3.86 h. Also, in [1] (oral, 10 mg/kg), the AUC(0-t) is 10.5 µM·h, the concentration peaked (Cmax) at 1650 nM, the Tmax is 0.25 h and the bioavailability was determined as 82%. Further, the half-life in [1] (oral, 10 mg/kg) was 3.85 h. Besides, in series [2] (setting [4]), the concentration at 0.5 h was 173 ng/mL and the concentration at 1 h worked out at 168 ng/mL. Besides, in [2] (setting [5]), the concentration at 0.5 h was 305 ng/mL and the concentration at 1 h is 406 ng/mL. For the same compound, in [2] (setting [6]), the concentration at 0.5 h was 432 ng/mL and the concentration at 1 h was determined as 365 ng/mL. Moreover, in series [2] (setting [7]), the concentration at 0.5 h is 1280 ng/mL and the concentration at 1 h turned out to be 1250 ng/mL.

Consider `C=C(C)c1cnc(-c2cc(Cl)ccc2F)cc1Nc1ccncc1C(=O)NC(C)(C)CO` [compound 8, 4-[[2-(5-chloro-2-fluoro-phenyl)-5-isopropenyl-4-pyridyl]amino]-N-(2-hydroxy-1,1-dimethyl-ethyl)pyridine-3-carboxamide], for which the IC50 on ALK1 (ACVRL1) was above 100 µM. Moreover, at ALK2 (ACVR1), the IC50 is above 100 µM. For the same compound, the IC50 on ALK3 (BMPR1A) is above 100 µM. Besides, in [1] (intravenous, 2 mg/kg), the V is recorded as 14.9 L/kg, the AUC(0-t) amounted to 0.709 µM·h, the Cmax is 1240 nM and the clearance was 103 mL/min/kg. Also, in series [1] (intravenous, 2 mg/kg), the half-life is 1.68 h. Further, in [1] (oral, 10 mg/kg), the AUC(0-t) amounted to 1.31 µM·h, the concentration peaked (Cmax) at 1060 nM, the Tmax was 0.25 h and the bioavailability was found to be 36.9%. In addition, the half-life in series [1] (oral, 10 mg/kg) is 1.26 h.

Regarding `CC(C)c1cnc(-c2ncccc2F)cc1Nc1ccnc2[nH]ccc12` [compound 29, 2-(3-fluoropyridin-2-yl)-5-(propan-2-yl)-N-{1H-pyrrolo[2,3-b]pyridin-4-yl}pyridin-4-amine], the IC50 was determined as 60.6 µM on ALK2 (ACVR1) and 15.3 µM at ALK6 (BMPR1B) (setting [3]).

On to `C=C(C)c1c(Nc2ccncc2C(=O)NC[C@H](C)O)cc(-c2cc(Cl)ccc2F)nc1N` (single isomer, unassigned) [23a], for which the IC50 at ALK2 (ACVR1) (10 μM ATP) is above 100 µM. On ALK3 (BMPR1A), the IC50 is above 100 µM. For the same compound, the half-maximal inhibitory concentration (IC50) on ALK6 (BMPR1B) (setting [3]) was above 100 µM. In series [1] (intravenous, 2 mg/kg), this compound gave an AUC(0-t) of 1.11 µM·h, a Cmax of 2560 nM and a clearance of 66 mL/min/kg. In addition, in series [1] (oral, 10 mg/kg), the AUC(0-t) came out at 0.907 µM·h, the Cmax was 612 nM, the Tmax worked out at 0.25 h and the bioavailability was 16.4%.

In the case of `C=C(C)c1cnc(-c2cc(Cl)ccc2F)cc1Nc1ccncc1C(=O)NCCO` [compound 26, 4-[[2-(5-chloro-2-fluoro-phenyl)-5-isopropenyl-4-pyridyl]amino]-N-(2-hydroxyethyl)pyridine-3-carboxamide], the IC50 on ALK2 (ACVR1) (10 μM ATP) is above 100 µM. Moreover, the IC50 on ALK3 (BMPR1A) is above 100 µM. Besides, the IC50 at ALK6 (BMPR1B) (setting [3]) was above 100 µM. In series [1] (intravenous, 2 mg/kg), this compound gave a V of 6.21 L/kg, an AUC(0-t) of 1.76 µM·h, a Cmax of 3000 nM and a clearance of 44.3 mL/min/kg. The half-life in [1] (intravenous, 2 mg/kg) was 1.62 h. Moreover, in series [1] (oral, 10 mg/kg), the AUC(0-t) was found to be 2.36 µM·h, the peak level (Cmax) was 1290 nM, the Tmax came out at 0.5 h and the bioavailability was 26.9%. Further, the half-life in series [1] (oral, 10 mg/kg) is 1.66 h.
